Assays:
[1] = compound: CCN1CCN(Cc2ccc(Nc3ncc(F)c(-c4cc(F)c5nc(C)n(C(C)C)c5c4)n3)nc2)CC1; assay: increase in dead-cell fraction, 72 h; higher = more death;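 note: breast cancer cell lines in 384-well plates, stained with Hoechst plus LIVE/DEAD far red dye and imaged, cells above an LDR intensity threshold counted dead, Hoechst-negative corpses included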
THZ531 = compound: CN(C)C/C=C/C(=O)Nc1ccc(C(=O)N2CCC[C@@H](Nc3ncc(Cl)c(-c4c[nH]c5ccccc45)n3)C2)cc1 [THZ531]; assay: as above
Flavopiridol = compound: CN1CC[C@H](c2c(O)cc(O)c3c(=O)cc(-c4ccccc4Cl)oc23)[C@H](O)C1 [Flavopiridol]; assay: as above
LEE011/Ribociclib [2] = compound: T1, CN(C)C(=O)c1cc2cnc(Nc3ccc(N4CCNCC4)cn3)nc2n1C1CCCC1 [LEE011/Ribociclib]; assay: as above
THZ1 = compound: CN(C)C/C=C/C(=O)Nc1ccc(C(=O)Nc2cccc(Nc3ncc(Cl)c(-c4c[nH]c5ccccc45)n3)c2)cc1 [THZ1]; assay: as above
BSJ-03-123 = compound: CC(=O)c1c(C)c2cnc(Nc3ccc(N4CCN(CCOCCOCCOCCNC(=O)COc5cccc6c5C(=O)N(C5CCC(=O)NC5=O)C6=O)CC4)cn3)nc2n(C2CCCC2)c1=O [BSJ-03-123]; assay: as above
Neratinib/HKI272 = compound: CCOc1cc2ncc(C#N)c(Nc3ccc(OCc4ccccn4)c(Cl)c3)c2cc1NC(=O)/C=C/CN(C)C [Neratinib/HKI272]; assay: as above
YKL-5-124 = compound: C=CC(=O)Nc1ccc(C(=O)Nc2[nH]nc3c2CN(C(=O)N[C@H](CN(C)C)c2ccccc2)C3(C)C)cc1 [YKL-5-124]; assay: as above
[3] = compound: CCc1cnn2c(NCc3ccc[n+]([O-])c3)cc(N3CCCC[C@H]3CCO)nc12; assay: as above
[4] = compound: CC(=O)c1c(C)c2cnc(Nc3ccc(N4CCNCC4)cn3)nc2n(C2CCCC2)c1=O; assay: as above
LEE011/Ribociclib [5] = compound: T1, LEE011/Ribociclib
Ceritinib/LDK378 = compound: Cc1cc(Nc2ncc(Cl)c(Nc3ccccc3S(=O)(=O)C(C)C)n2)c(OC(C)C)cc1C1CCNCC1 [Ceritinib/LDK378]
Doxorubicin = compound: COc1cccc2c1C(=O)c1c(O)c3c(c(O)c1C2=O)C[C@@](O)(C(=O)CO)C[C@@H]3O[C@H]1C[C@H](N)[C@H](O)[C@H](C)O1 [Doxorubicin]
[6] = compound: Cc1nn(C)c(COc2ccc(N3CCN(S(=O)(=O)N(C)C)CC3)cc2)c1-c1cccc2c(CCCOc3cccc4ccccc34)c(C(=O)O)n(CCN3CCOCC3)c12
Pictilisib/GDC0941 = compound: CS(=O)(=O)N1CCN(Cc2cc3nc(-c4cccc5[nH]ncc45)nc(N4CCOCC4)c3s2)CC1 [Pictilisib/GDC0941]
[7] = compound: CCc1cnn2c(NCc3ccc[n+]([O-])c3)cc(N3CCCC[C@H]3CCO)nc12
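Throughout, for GR50, 72 h: breast cancer and non-malignant breast epithelial cell lines, Deep Dye Drop or Dye Drop imaging, nine half-log doses, GR normalized to time-zero plates and DMSO-only controls.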

Q: What does the source list for SUM190PT?
A: increase in dead-cell fraction ([1]; 0.001 µM): 0.001; increase in dead-cell fraction ([1]; 0.003162 µM): 0.0059; increase in dead-cell fraction ([1]; 0.01 µM): 0.0009; increase in dead-cell fraction ([1]; 0.03162 µM): 0.0041; increase in dead-cell fraction ([1]; 0.1 µM): 0.0078; increase in dead-cell fraction ([1]; 0.3162 µM): 0.0015; increase in dead-cell fraction ([1]; 1 µM): -0.0004; increase in dead-cell fraction ([1]; 3.162 µM): 0.0076; increase in dead-cell fraction ([1]; 10 µM): 0.32; increase in dead-cell fraction (THZ531; 0.0001 µM): -0.0012; increase in dead-cell fraction (THZ531; 0.0003162 µM): 0.0006; increase in dead-cell fraction (THZ531; 0.001 µM): 0.0192; increase in dead-cell fraction (THZ531; 0.003162 µM): 0.0068; increase in dead-cell fraction (THZ531; 0.01 µM): -0.0033; increase in dead-cell fraction (THZ531; 0.03162 µM): 0.0143; increase in dead-cell fraction (THZ531; 0.1 µM): 0.0893; increase in dead-cell fraction (THZ531; 0.3162 µM): 0.636; increase in dead-cell fraction (THZ531; 1 µM): 0.44; increase in dead-cell fraction (Flavopiridol; 0.0001 µM): -0.0004; increase in dead-cell fraction (Flavopiridol; 0.0003162 µM): -0.0016; increase in dead-cell fraction (Flavopiridol; 0.001 µM): -0.0005; increase in dead-cell fraction (Flavopiridol; 0.003162 µM): -0.0011; increase in dead-cell fraction (Flavopiridol; 0.01 µM): 0.0056; increase in dead-cell fraction (Flavopiridol; 0.03162 µM): 0.0019; increase in dead-cell fraction (Flavopiridol; 0.1 µM): 0.0046; increase in dead-cell fraction (Flavopiridol; 0.3162 µM): 0.0223; increase in dead-cell fraction (Flavopiridol; 1 µM): 0.082; increase in dead-cell fraction (LEE011/Ribociclib [2]; 0.001 µM): 0.0052; increase in dead-cell fraction (LEE011/Ribociclib [2]; 0.003162 µM): 0.0077; increase in dead-cell fraction (LEE011/Ribociclib [2]; 0.01 µM): 0.0145; increase in dead-cell fraction (LEE011/Ribociclib [2]; 0.03162 µM): 0.0159; increase in dead-cell fraction (LEE011/Ribociclib [2]; 0.1 µM): 0.0213; increase in dead-cell fraction (LEE011/Ribociclib [2]; 0.3162 µM): 0.0196; increase in dead-cell fraction (LEE011/Ribociclib [2]; 1 µM): 0.0239; increase in dead-cell fraction (LEE011/Ribociclib [2]; 3.162 µM): 0.0464; increase in dead-cell fraction (LEE011/Ribociclib [2]; 10 µM): 0.006; increase in dead-cell fraction (THZ1; 0.0001 µM): -0.0051; increase in dead-cell fraction (THZ1; 0.0003162 µM): -0.0051; increase in dead-cell fraction (THZ1; 0.001 µM): -0.003; increase in dead-cell fraction (THZ1; 0.003162 µM): 0.0428; increase in dead-cell fraction (THZ1; 0.01 µM): 0.193; increase in dead-cell fraction (THZ1; 0.03162 µM): 0.338; increase in dead-cell fraction (THZ1; 0.1 µM): 0.269; increase in dead-cell fraction (THZ1; 0.3162 µM): 0.106; increase in dead-cell fraction (THZ1; 1 µM): 0.13; increase in dead-cell fraction (BSJ-03-123; 0.001 µM): 0.0016; increase in dead-cell fraction (BSJ-03-123; 0.003162 µM): -0.0004; increase in dead-cell fraction (BSJ-03-123; 0.01 µM): 0.0082; increase in dead-cell fraction (BSJ-03-123; 0.03162 µM): 0.018; increase in dead-cell fraction (BSJ-03-123; 0.1 µM): 0.0114; increase in dead-cell fraction (BSJ-03-123; 0.3162 µM): 0.0142; increase in dead-cell fraction (BSJ-03-123; 1 µM): 0.0139; increase in dead-cell fraction (BSJ-03-123; 3.162 µM): 0.0169; increase in dead-cell fraction (BSJ-03-123; 10 µM): 0.243; increase in dead-cell fraction (Neratinib/HKI272; 0.0003162 µM): -0.0031; increase in dead-cell fraction (Neratinib/HKI272; 0.001 µM): -0.0024; increase in dead-cell fraction (Neratinib/HKI272; 0.003162 µM): -0.0097; increase in dead-cell fraction (Neratinib/HKI272; 0.01 µM): 0.0037; increase in dead-cell fraction (Neratinib/HKI272; 0.03162 µM): -0.0082; increase in dead-cell fraction (Neratinib/HKI272; 0.1 µM): 0.0008; increase in dead-cell fraction (Neratinib/HKI272; 0.3162 µM): 0.0036; increase in dead-cell fraction (Neratinib/HKI272; 1 µM): 0.0415; increase in dead-cell fraction (Neratinib/HKI272; 3.162 µM): 0.0395; increase in dead-cell fraction (YKL-5-124; 0.001 µM): 0.0072; increase in dead-cell fraction (YKL-5-124; 0.003162 µM): 0.0099; increase in dead-cell fraction (YKL-5-124; 0.01 µM): 0.0098; increase in dead-cell fraction (YKL-5-124; 0.03162 µM): 0.0132; increase in dead-cell fraction (YKL-5-124; 0.1 µM): 0.005; increase in dead-cell fraction (YKL-5-124; 0.3162 µM): 0.0169; increase in dead-cell fraction (YKL-5-124; 1 µM): 0.0033; increase in dead-cell fraction (YKL-5-124; 3.162 µM): 0.0008; increase in dead-cell fraction (YKL-5-124; 10 µM): 0.244; increase in dead-cell fraction ([3]; 0.0001 µM): 0.0034; increase in dead-cell fraction ([3]; 0.0003162 µM): 0.0047; increase in dead-cell fraction ([3]; 0.001 µM): -0.0024; increase in dead-cell fraction ([3]; 0.003162 µM): -0.0088; increase in dead-cell fraction ([3]; 0.01 µM): -0.0098; increase in dead-cell fraction ([3]; 0.03162 µM): 0.201; increase in dead-cell fraction ([3]; 0.1 µM): 0.449; increase in dead-cell fraction ([3]; 0.3162 µM): 0.477; increase in dead-cell fraction ([3]; 1 µM): 0.49; increase in dead-cell fraction ([4]; 0.0003162 µM): -0.0078; increase in dead-cell fraction ([4]; 0.001 µM): -0.0072; increase in dead-cell fraction ([4]; 0.003162 µM): -0.0095; increase in dead-cell fraction ([4]; 0.01 µM): 0.0012; increase in dead-cell fraction ([4]; 0.03162 µM): -0.0013; increase in dead-cell fraction ([4]; 0.1 µM): 0.0119; increase in dead-cell fraction ([4]; 0.3162 µM): 0.0131; increase in dead-cell fraction ([4]; 1 µM): 0.0095; increase in dead-cell fraction ([4]; 3.162 µM): 0.0058; GR50, 72 h (LEE011/Ribociclib [5]): 0.0246 µM; GR50, 72 h (Ceritinib/LDK378): 0.528 µM; GR50, 72 h (Doxorubicin): 0.025 µM; GR50, 72 h [6]: 6.86 µM; GR50, 72 h (Pictilisib/GDC0941): 3.1 µM; GR50, 72 h [7]: 0.0215 µM

Reference: the supplement of paper PMC9663587
